The numbers were not newly measured in patent US5807732A, “GDP-L-fucose: β-D-galactoside 2-α-L-fucosyltransferases, DNA sequences encoding the same, method for producing the same and a method of genotyping a person” (priority 1995, dated 1998), which cites them from elsewhere.

For data set [1], the system named is Secretor α(1,2)fucosyltransferase. The note with it: read-out: Apparent Km.
Data set [2] deals with T1, H α(1,2)fucosyltransferase (Homo sapiens, UniProt P19526).
T1 sequence (P19526 1-365): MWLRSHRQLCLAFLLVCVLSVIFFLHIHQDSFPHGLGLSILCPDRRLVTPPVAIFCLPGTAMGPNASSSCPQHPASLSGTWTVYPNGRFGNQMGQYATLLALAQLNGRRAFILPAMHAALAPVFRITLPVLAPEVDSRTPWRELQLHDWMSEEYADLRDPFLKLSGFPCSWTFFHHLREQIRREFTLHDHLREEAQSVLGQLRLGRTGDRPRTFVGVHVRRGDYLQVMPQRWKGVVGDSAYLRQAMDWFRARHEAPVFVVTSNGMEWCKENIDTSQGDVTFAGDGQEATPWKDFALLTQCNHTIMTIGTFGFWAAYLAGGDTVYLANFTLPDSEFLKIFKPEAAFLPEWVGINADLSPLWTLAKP
To be noted: enzyme H; literature values; read-out: Apparent Km.

Data set [3] deals with transfected COS-7 cells. The note with it: expressed in COS-7 cells.
Setting [4] is: enzyme Secretor, literature values.

Values joined by “and” are separate entries in the source; they are usually repeats but may differ in a detail not shown here. Identical values can stand only once. Like-named read-outs stand apart in the source and are kept apart here.

What is called Km is the substrate concentration at which the rate is half of its maximum. Turning to `C[C@@H]1O[C@H](OP(=O)(O)OP(=O)(O)OC[C@H]2O[C@@H](n3cnc4c(=O)[nH]c(N)nc43)[C@H](O)[C@@H]2O)[C@@H](O)[C@H](O)[C@@H]1O` [GDP-fucose], the Km in data set [1] (setting [4]) was 108 µM and 123 µM. Take `COC1O[C@H](CO)[C@@H](O)[C@H](O[C@@H]2O[C@H](CO)[C@H](O)[C@H](O)[C@H]2O)[C@H]1NC(C)=O` (stereo partly drawn) [lacto-N-biose I (--O--Me)]: the Km was 3500 µM in data set [2] and 1400 µM in data set [1] (setting [4]). With `CC(=O)N[C@H]1C(O)O[C@H](CO)[C@@H](O)[C@@H]1O[C@@H]1O[C@H](CO)[C@H](O)[C@H](O)[C@H]1O` (stereo partly drawn) [lacto-N-biose I], the Km in data set [2] was 2000 µM; in data set [1] (setting [4]), 1000 µM.

As for `CC(=O)N[C@H]1[C@H](O[C@H]2[C@@H](O)[C@@H](CO)O[C@@H](O[C@H]3[C@H](O)[C@@H](O)C(O)O[C@@H]3CO)[C@@H]2O)O[C@H](CO)[C@@H](O)[C@@H]1O[C@@H]1O[C@H](CO)[C@H](O)[C@H](O)[C@H]1O` (stereo partly drawn) [lacto-N-tetraose], the Michaelis constant (Km) in data set [1] (setting [4]) is 1600 µM.

`OC[C@H]1O[C@@H](Oc2ccccc2)[C@H](O)[C@@H](O)[C@H]1O` [phenyl-β-D-galactoside]: the Km in data set [1] (human Secretor α(1,2)fucosyltransferase partially purified from human milk) is 15100 µM; in data set [1] (human Secretor α(1,2)fucosyltransferase purified from human serum), 11400 µM.

B1: H blood group cDNA-encoded α(1,2)fucosyltransferase: human H blood group (FUT1) α(1,2)fucosyltransferase expressed from cDNA in COS-7 cells (protein, UniProt P19526 1-365, looked up)
Galactoside …: T1 sequence (P19526 1-365)
Regarding B1, in data set [3], the “distribution of α(1,2)fucosyltransferase activity between cells and media” value is listed as “largely cell-associated”.
